Measured values reported in US12428370B2, “Haloallylamine dual amine oxidase inhibitors” (Syntara Limited, priority 2020, dated 2025).

Legend:
[1] = molecular target: T1, human recombinant SSAO/VAP-1 (Homo sapiens, UniProt Q16853); experiment: Inhibition of human recombinant SSAO/VAP-1 (Amplex Red fluorometric assay); type: biochemical; details: 30 min incubation, 37° C., benzylamine substrate
T1 construct: a cloned cDNA template corresponding to residues 34-763 of human SSAO/VAP-1; TEV cleavage site (N); made in house
T1 sequence (Q16853 34-763): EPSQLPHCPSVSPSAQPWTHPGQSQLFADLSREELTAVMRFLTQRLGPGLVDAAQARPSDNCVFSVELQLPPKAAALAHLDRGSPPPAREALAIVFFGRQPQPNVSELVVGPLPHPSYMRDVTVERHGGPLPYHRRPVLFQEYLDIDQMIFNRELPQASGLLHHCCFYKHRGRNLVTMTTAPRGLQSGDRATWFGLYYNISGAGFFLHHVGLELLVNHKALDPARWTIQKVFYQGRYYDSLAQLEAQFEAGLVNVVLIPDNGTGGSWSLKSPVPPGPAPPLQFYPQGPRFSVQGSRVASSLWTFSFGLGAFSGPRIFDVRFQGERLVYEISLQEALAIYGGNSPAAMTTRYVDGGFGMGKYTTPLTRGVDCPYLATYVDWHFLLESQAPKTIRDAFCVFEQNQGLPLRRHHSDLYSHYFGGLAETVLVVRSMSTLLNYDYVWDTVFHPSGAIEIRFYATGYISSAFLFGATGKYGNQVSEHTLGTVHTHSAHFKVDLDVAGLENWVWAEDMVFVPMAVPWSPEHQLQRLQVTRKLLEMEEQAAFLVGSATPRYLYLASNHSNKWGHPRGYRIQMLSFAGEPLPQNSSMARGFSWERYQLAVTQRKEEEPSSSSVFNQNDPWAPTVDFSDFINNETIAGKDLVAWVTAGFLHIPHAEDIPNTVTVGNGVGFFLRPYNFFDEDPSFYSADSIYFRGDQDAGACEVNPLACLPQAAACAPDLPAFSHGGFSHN
Protocol: Method to Determine the Ability of Compounds of Formula I to Inhibit Human Recombinant SSAO/VAP-1
Human recombinant SSAO/VAP-1 amine oxidase activity was determined using the method as described for monoamine oxidase, copper-containing amine oxidases and related enzymes (Holt A. and Palcic M., Nat. Protoc. 2006, 1, 2498-2505). Briefly, a cloned cDNA template corresponding to residues 34-763 of human SSAO/VAP-1, and incorporating a mouse Ig kappa (κ) signal sequence, N-terminal flag epitope tag and tobacco etch virus (TEV) cleavage site, was assembled in a mammalian expression vector (pLO-CMV) by Geneart AG. This vector containing human SSAO/VAP-1 residues was transfected into CHO-K1 glycosylation mutant cell line, Lec 8. A clone stably expressing human SSAO/VAP-1 was isolated and cultured in large scale. Active human SSAO/VAP-1 was purified and recovered using immunoaffinity chromatography. This was used as the source for SSAO/VAP-1 activity. A high-throughput colorimetric assay was developed using either 96 or 384 well format. Briefly, in a standard 96 well plate assay 50 μL of purified human SSAO/VAP-1 (0.25 μg/mL) in 0.1 M sodium phosphate buffer (pH 7.4) was added into each well. […] After 30 min incubation, 50 μL of the reaction mixture containing 600 μM benzylamine (Sigma Aldrich), 120 μM Amplex Red (Sigma Aldrich) and 1.5 U/mL horseradish peroxidase (Sigma Aldrich) prepared in 0.1 M sodium phosphate buffer (pH 7.4) were added to the corresponding well. The fluorescence unit (RFU) was read every 2.5 min for 30 min at 37° C. excitation 565 nm and emission 590 nm (Optima; BMG labtech). The slope of the kinetics for each well was calculated using MARS data analysis software (BMG labtech) and this value was used to deduce the IC50 value (Dotmatics).

Recombinant human MAO-B = molecular target: T2, Recombinant human MAO-B (Homo sapiens, UniProt P27338); experiment: Inhibition of human recombinant MAO-B; type: biochemical; details: incubation time of 2 hours, benzylamine 100 μM
T2 construct: purchased Sigma Aldrich
T2 sequence (P27338 1-520): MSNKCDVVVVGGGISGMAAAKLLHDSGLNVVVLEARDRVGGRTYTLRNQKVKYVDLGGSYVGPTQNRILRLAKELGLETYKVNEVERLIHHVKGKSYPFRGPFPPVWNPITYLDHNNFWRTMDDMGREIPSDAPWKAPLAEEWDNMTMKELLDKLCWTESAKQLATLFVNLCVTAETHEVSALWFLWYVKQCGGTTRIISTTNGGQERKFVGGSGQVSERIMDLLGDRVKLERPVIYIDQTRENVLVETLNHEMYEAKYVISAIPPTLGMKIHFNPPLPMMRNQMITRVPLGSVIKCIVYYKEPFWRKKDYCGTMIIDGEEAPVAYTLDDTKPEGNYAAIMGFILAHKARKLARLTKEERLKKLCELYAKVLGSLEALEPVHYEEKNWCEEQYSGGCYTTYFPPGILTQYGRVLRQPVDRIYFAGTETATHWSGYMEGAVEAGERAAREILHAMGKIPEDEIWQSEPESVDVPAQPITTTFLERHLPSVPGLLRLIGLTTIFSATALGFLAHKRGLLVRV
Protocol: Method to Determine the Ability of Compounds of Formula I to Inhibit Human Recombinant MAO-B
The ability of the compounds of this invention to inhibit MAO-B activities in vitro was tested. Recombinant human MAO-B (0.06 mg/mL; Sigma Aldrich) was used as source of MAO-B enzyme activities.

recombinant human MAO-A = molecular target: T3, recombinant human MAO-A (Homo sapiens, UniProt P21397); experiment: Inhibition of human recombinant MAO-A; type: biochemical; details: incubation time of 2 hours, tyramine 100 μM
T3 construct: purchased Sigma Aldrich
T3 sequence (P21397 1-527): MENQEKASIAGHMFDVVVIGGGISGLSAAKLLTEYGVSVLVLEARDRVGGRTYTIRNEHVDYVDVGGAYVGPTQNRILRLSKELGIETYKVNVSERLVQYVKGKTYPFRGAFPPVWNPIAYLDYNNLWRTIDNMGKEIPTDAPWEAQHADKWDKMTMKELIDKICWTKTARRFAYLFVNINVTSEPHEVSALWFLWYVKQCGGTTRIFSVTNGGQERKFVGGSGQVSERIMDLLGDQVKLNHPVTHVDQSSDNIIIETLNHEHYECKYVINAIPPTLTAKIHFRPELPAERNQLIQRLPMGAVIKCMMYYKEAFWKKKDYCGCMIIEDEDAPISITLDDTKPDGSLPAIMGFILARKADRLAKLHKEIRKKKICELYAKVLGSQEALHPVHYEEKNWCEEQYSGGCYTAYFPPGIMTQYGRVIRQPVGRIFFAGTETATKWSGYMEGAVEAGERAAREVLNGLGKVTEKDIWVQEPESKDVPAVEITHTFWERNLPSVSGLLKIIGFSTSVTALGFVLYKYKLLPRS
Protocol: Method to Determine the Ability of Compounds of Formula I to Inhibit Human Recombinant MAO-A
The selectivity of the compounds of this invention was tested by determining their ability to inhibit MAO-A activity in vitro, using recombinant human MAO-A (0.003 mg/mL; Sigma Aldrich). The assay was performed in a similar way as for human SSAO/VAP-1 (EXAMPLE 9) except, the substrate tyramine was used at 100 μM in place of benzylamine and the assay was run after an incubation time of 2 hours.

[2] = system: Myogenic cell cultures from both mdx mice and DMD patients; details: in vitro; cited from earlier work
mdx mice = details: 3-month old mdx mice, Vitiello L. et al. 2018; cited from earlier work

Compound	IC50 [1] [µM]	IC50 (Recombinant human MAO-B) [µM]	IC50 (recombinant human MAO-A) [µM]	susceptibility (sensitivity) to oxidative stress [2]	myofiber damage, oxidative stress and muscle function (mdx mice)
NC/C(=C\F)COc1ccc(OC(F)(F)F)cc1 [Compound 13]	< 0.01	< 0.05	< 0.3		
NC/C(=C\F)COc1ccccc1 [Compound 10]	0.01 to 0.5	< 0.05	0.3 to 3		
N#Cc1ccc(OC/C(=C/F)CN)cc1Br [Compound 3, (E)-4-((2-(aminomethyl)-3-fluoroallyl)oxy)-2-bromobenzonitrile]	< 0.01	< 0.05	3 to 30		
NC/C(=C\F)COc1ccc(C(F)(F)F)cc1 [Compound 11]	< 0.01	< 0.05	3 to 30		
N#Cc1ccc(OC/C(=C/F)CN)c(F)c1 [Compound 4, (E)-4-((2-(aminomethyl)-3-fluoroallyl)oxy)-3-fluorobenzonitrile]	< 0.01	< 0.05	3 to 30		
N#Cc1cccc(OC/C(=C/F)CN)c1 [Compound 9]	< 0.01	< 0.05	0.3 to 3		
C[C@H](NCc1ccc(OCc2cccc(F)c2)cc1)C(N)=O [safinamide]				abrogated	reduced myofiber damage and oxidative stress, and improved muscle function
N#Cc1ccccc1OC/C(=C/F)CN [Compound 8]	> 1	< 0.05	< 0.3		
CS(=O)(=O)c1ccc(OC/C(=C/F)CN)cc1 [Compound 12]	< 0.01	> 1	> 30		

Now from value to molecule, other results behind:

IC50 [1] [µM]	IC50 (Recombinant human MAO-B) [µM]	IC50 (recombinant human MAO-A) [µM]	Compound	susceptibility (sensitivity) to oxidative stress [2]	myofiber damage, oxidative stress and muscle function (mdx mice)
< 0.01	< 0.05	0.3 to 3	COc1ccc(OC/C(=C\F)CN)cc1 [Compound 14]		
< 0.01	< 0.05	0.3 to 3	N#Cc1ccc(OC/C(=C\F)CN)cc1 [Compound 6]		
< 0.01	< 0.05	3 to 30	Cc1cc(OC/C(=C/F)CN)ccc1C#N [Compound 5, (E)-4-((2-(aminomethyl)-3-fluoroallyl)oxy)-2-methylbenzonitrile]		
0.01 to 0.5	0.05 to 0.5	> 30	COc1cc(OC/C(=C/F)CN)ccc1C#N [Compound 7]		
< 0.01	< 0.05	> 30	N#Cc1ccc(OC/C(=C/F)CN)cc1F [Compound 2, (E)-4-((2-(aminomethyl)-3-fluoroallyl)oxy)-2-fluorobenzonitrile]		
